± gives the expanded uncertainty stated by the source.
Key:
[1] = Liquid; for mass density: 101.33 kPa, Pycnometric method; for Normal boiling temperature: Ebulliometric method (Recirculating still)
[2] = excess molar enthalpy (molar enthalpy of mixing); xn = mol fraction of the nth substance listed; conditions: 298.15 K, 101 kPa, Liquid

CC(=O)CC(C)C [4-methylpentan-2-one]
[1]
Conditions | mass density [kg/m3] | vapor or sublimation pressure [kPa]
298.15 K | 796.33 ± 3.6 | –
386.7 K | – | 95.3 ± 5

Conditions | Normal boiling temperature [°C]
[1] | 117.39 ± 0.41

CC(=O)CC(C)C [4-methylpentan-2-one] + C[S+](C)[O-]
[2]
Conditions | excess molar enthalpy [kJ/mol]
x1 = 0.0387 | 0.132 ± 0.0093
x1 = 0.0839 | 0.266 ± 0.015
x1 = 0.1332 | 0.392 ± 0.02
x1 = 0.1874 | 0.473 ± 0.023
x1 = 0.2391 | 0.548 ± 0.026
x1 = 0.2901 | 0.6 ± 0.028
x1 = 0.3377 | 0.66 ± 0.03
x1 = 0.3804 | 0.698 ± 0.032
x1 = 0.4029 | 0.722 ± 0.033
x1 = 0.4617 | 0.712 ± 0.033
x1 = 0.5304 | 0.685 ± 0.031
x1 = 0.6116 | 0.604 ± 0.028
x1 = 0.6917 | 0.477 ± 0.023
x1 = 0.7918 | 0.287 ± 0.015
x1 = 0.837 | 0.226 ± 0.013
x1 = 0.9237 | 0.107 ± 0.0083

CCC(C)=O [butanone]
[1]
Conditions | mass density [kg/m3] | vapor or sublimation pressure [kPa]
298.15 K | 799.71 ± 3.7 | –
350.9 K | – | 95.3 ± 5

Conditions | Normal boiling temperature [°C]
[1] | 79.54 ± 0.41

CCC(C)=O [butanone] + C[S+](C)[O-]
[2]
Conditions | excess molar enthalpy [kJ/mol]
x1 = 0.054 | 0.075 ± 0.007
x1 = 0.1094 | 0.149 ± 0.01
x1 = 0.1725 | 0.213 ± 0.013
x1 = 0.2385 | 0.26 ± 0.014
x1 = 0.2956 | 0.305 ± 0.016
x1 = 0.3507 | 0.348 ± 0.018
x1 = 0.4007 | 0.373 ± 0.019
x1 = 0.4448 | 0.392 ± 0.02
x1 = 0.4881 | 0.395 ± 0.02
x1 = 0.5787 | 0.404 ± 0.02
x1 = 0.6433 | 0.361 ± 0.018
x1 = 0.7077 | 0.308 ± 0.016
x1 = 0.7797 | 0.243 ± 0.014
x1 = 0.856 | 0.149 ± 0.01
x1 = 0.9297 | 0.0565 ± 0.0063

O=C1CCCCC1 [cyclohexanone]
[1]
Conditions | mass density [kg/m3] | vapor or sublimation pressure [kPa]
303.15 K | 937.58 ± 5 | –
426.3 K | – | 95.3 ± 5

Conditions | Normal boiling temperature [°C]
[1] | 155.69 ± 0.41

O=C1CCCCC1 [cyclohexanone] + C[S+](C)[O-]
[2]
Conditions | excess molar enthalpy [kJ/mol]
x1 = 0.0386 | 0.104 ± 0.0082
x1 = 0.0873 | 0.237 ± 0.013
x1 = 0.1405 | 0.251 ± 0.1
x1 = 0.1917 | 0.441 ± 0.022
x1 = 0.2431 | 0.505 ± 0.024
x1 = 0.3037 | 0.565 ± 0.027
x1 = 0.3596 | 0.634 ± 0.029
x1 = 0.4115 | 0.672 ± 0.031
x1 = 0.5044 | 0.691 ± 0.032
x1 = 0.5686 | 0.662 ± 0.03
x1 = 0.6399 | 0.613 ± 0.029
x1 = 0.7238 | 0.525 ± 0.025
x1 = 0.8119 | 0.382 ± 0.019
x1 = 0.9101 | 0.201 ± 0.012

C[S+](C)[O-] [dimethyl sulfoxide]
[1]
Conditions | mass density [kg/m3] | vapor or sublimation pressure [kPa]
298.15 K | 1095.37 ± 6.8 | –
461 K | – | 95.3 ± 5

Conditions | Normal boiling temperature [°C]
[1] | 189.04 ± 0.41

— the NIST ThermoML archive (doi:10.1016/j.jct.2007.04.004)
